This assay deals with M. tuberculosis H37Rv growth inhibition, 7H9 media. In words: M. tuberculosis growth inhibition, HTS (AID 449762).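 On all read-outs here: bacterial growth assessed after seven days of incubation.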 The conditions noted are these: for IC90: measured here: IC90 growth inhibition.

Structures are written as SMILES. Results filed as inconclusive are left out.

The results in this text go back to PubChem BioAssay AID449762 (Southern Research Specialized Biocontainment Screening …, 2010).

As a reminder, the IC50 is the midpoint of a concentration-inhibition curve. As a reminder, the IC90 is the point of the concentration-response curve where the effect stands at 90%. High values mean a need for much substance, low ones an effect from little substance. Consider `CCN=c1scc(-c2ccco2)n1/N=C/c1ccc(OC)c(O)c1`, for which the IC50 is 12.3 µM and the IC90 worked out at 41.8 µM. With `CCOc1ccc(-c2cc(C(=O)NCCCn3ccnc3)c3cc(Br)ccc3n2)cc1`, the IC50 is 24.1 µM and the IC90 came to 27.4 µM. On to `CC(=O)c1ccc(N2CCC(c3cc(-c4ccc(Cl)cc4Cl)n[nH]3)CC2)c([N+](=O)[O-])c1`, for which the IC50 was 18.2 µM and the IC90 was found to be 26.1 µM. In the case of `CCOC(=O)c1[nH]c2ccc(F)cc2c1NC(=O)CN1CCN(C/C=C/c2ccccc2)CC1`, the IC50 is 19.1 µM and the IC90 stood at 27.1 µM. In the case of `[O-][n+]1c2ccccc2c2n1CCN1CCOC21c1ccc(Cl)cc1` (stereo not drawn), the IC50 was 26.1 µM and the IC90 amounted to 68 µM. The like results for `O=C(CN1CCN(c2nc(-c3ccc(F)cc3)cs2)CC1)NCc1ccc2c(c1)OCO2` were, in that order, 42.6 µM and 55.8 µM. As to `CCOC(=O)CSc1nc(N)c(C(=O)Nc2ccc(N(C)C)cc2)s1`, the IC50 is 1.05 µM and the IC90 stood at 5.82 µM. Regarding `CCOC(=O)c1ccc(Oc2nc(NC(C)(C)C)nc(N(C)C)n2)cc1`, the half-maximal inhibitory concentration (IC50) is 21.3 µM and the IC90 came to 82.2 µM.

In the case of `S=C(Nc1ccc(Cl)cc1)NC1CC2CCC(C1)N2Cc1ccccc1` (stereo not drawn), the half-inhibitory concentration (IC50) is 10.9 µM and the IC90 was 14.8 µM. With `Cc1cc(=O)n2cccc(O)c2n1`, the IC50 is 5.94 µM and the IC90 came to 15.6 µM. For the molecule `C/C=C(\C)C(=O)Nc1cccc(C2=NOC3(C2)C[C@H](C(N)=O)N(C(=O)c2cc([N+](=O)[O-])cc([N+](=O)[O-])c2)C3)c1` (stereo partly drawn), the IC50 was 1.34 µM and the IC90 is 3.37 µM. As for `Cc1cc(-c2n[nH]c(=S)n2/N=C/C(Br)=C/c2ccccc2)n[nH]1`, the IC50 is 2.08 µM and the IC90 was found to be 5.63 µM. Consider `Cc1ccc(C(=O)/C=C/C(=O)c2ccc(C)cc2)cc1`, for which the 50% inhibitory concentration (IC50) was 2.05 µM and the IC90 was found to be 7.63 µM.

For the molecule `C=C1C(=O)O[C@@H]2C[C@@H](C)[C@@H]3C4OC4C(=O)[C@@]3(C)[C@@H](O)[C@H]12` (stereo partly drawn), the IC50 was 3.64 µM and the IC90 was 9.39 µM. Regarding `CC(Oc1ccc(F)cc1)C(=O)Nc1sc2c(c1C(=O)NCc1cccnc1)CCCC2` (stereo not drawn), the IC50 was 45 µM and the IC90 was determined as 52.5 µM.

Turning to `Cc1ccc(-c2csc3nc4c5ccccc5c(NCCCN5CCOCC5)nn4c(=O)c23)cc1`, the IC50 was 24.7 µM and the IC90 was found to be 27.7 µM. As to `COc1cccc2sc3ccc(C#CC4(N)CCCCC4)cc3c(=O)c12`, the IC50 was 61.6 µM and the IC90 stood at 82.2 µM. As for `CCOC(=O)C1CCN(C(=O)CSCc2nc(-c3ccc(OCC)cc3)oc2C)CC1`, the IC50 was 42.9 µM and the IC90 stood at 48.1 µM.

Consider `CN1C(=O)/C(=C/c2cccc(Cl)c2)Sc2ccc(C(=O)N3CCCC3)cc21`, for which the IC50 is 17.1 µM and the IC90 is 31 µM.

On to `CNc1ccc2oc(C[C@H]3O[C@@]4(CC[C@H]3C)O[C@H]([C@H](C)C(=O)c3ccc[nH]3)[C@H](C)C[C@H]4C)nc2c1C(=O)O`, for which the IC50 is 1.1 µM and the IC90 is 1.97 µM. `Cn1c(N)c(C(=O)COC(=O)c2ccc([N+](=O)[O-])o2)c(=O)n(C)c1=O`: the IC50 was 2.81 µM and the IC90 stood at 4.54 µM. Molecule `O=C(Sc1nnc(-c2ccccc2)o1)N1c2ccccc2Sc2ccccc21` registered an IC90 greater than 100 µM. Turning to `Cc1nn(-c2ccccc2)c2c1C(c1ccc([N+](=O)[O-])cc1)N1C(=N2)C(=O)Nc2ccccc21` (stereo not drawn), the IC50 is 41.4 µM and the IC90 is greater than 100 µM. `Cc1ccnc(NC(=O)CCc2c[nH]c3ccccc23)c1`: the IC50 was 25.8 µM and the IC90 amounted to 54.4 µM. For the molecule `CCn1cc([N+](=O)[O-])c(C(=O)N2N=C(c3ccc4ccccc4c3)CC2c2ccccc2O)n1` (stereo not drawn), the IC50 was 49.6 µM and the IC90 was greater than 100 µM. `COc1ccc(-c2cc(-c3ccc(OC)cc3)[nH]n2)cc1`: the IC50 is 0.33 µM and the IC90 was 1 µM. As for `C=C1CCC[C@]2(C)C[C@H]3OC(=O)C(CNC(C)CCCC(C)C)[C@H]3CC12` (stereo partly drawn), the IC50 was 22.4 µM and the IC90 was 24.2 µM. For `O=C(C1CCCN(c2ncnc3c2nc2n3CCCCC2)C1)N1CCN(c2ccc(Cl)cc2)CC1` (stereo not drawn), the IC50 is 30.6 µM and the IC90 is 40.3 µM. As for `Cc1ccc(NC(=O)COc2ccccc2CNC(C)(C)CC(C)(C)C)cc1`, the IC50 is 22.6 µM and the IC90 came to 29.8 µM. On to `Nc1c(C(=O)NC2CCCCC2)nsc1C(=O)OCC(=O)NC1CCCCC1`, for which the IC50 is 1.87 µM and the IC90 was determined as 6.02 µM. Regarding `O=C(c1ccccc1)C1CN(Cc2ccccc2)CCC1(O)c1ccccc1` (stereo not drawn), the IC50 is 9.4 µM and the IC90 worked out at 14.6 µM.

Consider `Cc1ccc(C(c2nnnn2Cc2cccs2)N2CCN(Cc3ccc4c(c3)OCO4)CC2)cc1` (stereo not drawn), for which the IC50 was 21 µM and the IC90 is 27.9 µM. For `CC1CN(C(=S)SCC(=O)c2ccc([N+](=O)[O-])cc2)CC(C)O1` (stereo not drawn), the IC50 was 27 µM and the IC90 is greater than 100 µM. For `CCOC(=O)COc1ccc(C2CC(C)=NN2c2ccccc2)cc1` (stereo not drawn), the IC50 is 2.81 µM and the IC90 is 17.7 µM.

For `Cc1c(C(=O)Nc2nc3ccccc3[nH]2)oc2c(Cl)cccc12`, the IC50 was 68 µM and the IC90 was greater than 100 µM. `COc1cc2[nH]c(Cl)c([N+](=O)[O-])c2cc1OC`: the IC50 is 99.6 µM and the IC90 is greater than 100 µM.

As for `O=C(NCCC1=CCCCC1)c1c(O)nc2sccn2c1=O`, the IC50 was 72.8 µM and the IC90 is greater than 100 µM. As to `Cc1ccc(-n2cc(CN(C)Cc3nccn3C)c(-c3cccc(C)c3)n2)cc1`, the IC50 was 9.52 µM and the IC90 was found to be 13.3 µM. The matching figures for `CC/C(C)=N/NC(=S)NCc1ccco1`: 47.5 µM and 53.8 µM. The like results for `O=[N+]([O-])c1cc(C=Nc2ccc3ccccc3c2)ccc1Br` were, in that order, 33.5 µM and 45.6 µM. The matching figures for `c1ccc(CCNc2ncnc3c2cnn3-c2ccccc2)cc1`: 22.1 µM and greater than 50 µM. Take `CS(=O)(=O)c1nc(-c2ccccc2)cc(C(F)(F)F)n1`: the IC50 was 6.68 µM and the IC90 stood at 18.7 µM. The like results for `Cc1ccc(C(=O)O/N=C\c2ccc(N3CCCCC3)c([N+](=O)[O-])c2)cc1` were, in that order, 22.1 µM and 49 µM. Regarding `CCOC1OC(=O)C(Cl)=C1Nc1ccccc1C` (stereo not drawn), the IC50 is 2.91 µM and the IC90 worked out at 6.18 µM. With `O=[N+]([O-])c1ccc(C2Oc3ccccc3C3CC(c4ccccc4)=NN32)s1` (stereo not drawn), the IC50 is 6.12 µM and the IC90 stood at 6.95 µM.

Consider `O=C(Oc1ccc2ccccc2c1)c1cncc(Br)c1`, for which the IC50 was 13 µM and the IC90 turned out to be 60.3 µM. The like results for `CCOc1cc(C(=O)OCc2ccc(C(=O)OC)o2)cc(Br)c1OC` were, in that order, 61.7 µM and greater than 100 µM.

`Cc1ccc(C2=NCCn3c2c2ccccc2[n+]3[O-])cc1`: the IC50 was 22.6 µM and the IC90 is 38.9 µM.

In the case of `Nc1nc(CN2CCN(c3ccccc3F)CC2)nc(N2CCCc3ccccc32)n1`, the IC50 was 4.99 µM and the IC90 turned out to be 14 µM. The like results for `Nc1ccc(-c2nc3ccc(-c4nc5ccccc5o4)cc3[nH]2)cc1` were, in that order, 31.4 µM and 41.6 µM.

For `Nc1c(C(=O)O)cnc2c(-c3ccc(Cl)cc3)cnn12`, the IC50 is 25.5 µM and the IC90 was determined as 55.6 µM. On to `CC(=O)OC1=Cc2c(ccc3ccc(=O)oc23)OC1(C)C`, for which the IC50 was 14 µM and the IC90 is 31.6 µM. For the molecule `CCOc1ccc(-c2cnc(NCc3cccc4ccccc34)n2CCOC)cc1`, the IC50 is 5.56 µM and the IC90 was 8.14 µM. Regarding `O=C(/C=C\c1cccs1)N1CCN(Cc2ccc3c(c2)OCO3)CC1`, the IC50 was 1.48 µM and the IC90 was 5.53 µM. As to `c1ccc2c(c1)CCN(c1nc3cc4c(cc3s1)OCCO4)C2`, the IC50 is 7.45 µM and the IC90 is 16.9 µM. Turning to `CCCCCCCCn1c2c(c(=N)c3c1CCC3)CCCC2`, the IC50 was 19 µM and the IC90 stood at 26.4 µM.

`C=CCSc1n[nH]c(-c2ccc(OCCCC)cc2)n1`: the IC50 was 15.8 µM and the IC90 turned out to be 39.2 µM. Regarding `Cc1nc2sccn2c1-c1nc(-c2cc3ccccc3o2)cs1`, the IC50 was 52.5 µM and the IC90 was 90.7 µM. As for `CN(C)[C@@H]1C(=O)C(C(N)=O)=C(O)[C@@]2(O)C(=O)C3=C(O)c4c(O)cccc4[C@@](C)(O)C3C[C@@H]12` (stereo partly drawn), the IC50 is 5.95 µM and the IC90 worked out at 15 µM. In the case of `Cc1cccc(CSc2nc3c(c(-c4cccs4)c2C#N)CN(C)CC3)c1`, the IC90 was greater than 100 µM. On to `Cc1sc2nc(CN(C(=O)NC3CCCCC3)C3CCCC3)[nH]c(=O)c2c1C`, for which the IC50 was 30.5 µM and the IC90 was greater than 100 µM. As for `Cc1cccc(C(=O)NNC(=S)NC(=O)c2ccccc2)c1`, the IC50 was 0.59 µM and the IC90 was found to be 2.82 µM. As to `c1cc(Nc2cccc3nccnc23)c2nccnc2c1`, the IC50 was 9.75 µM and the IC90 amounted to 23.2 µM. On to `Cc1ccc(C)c(S(=O)(=O)N2CCC(c3nc4c(nnn4Cc4ccc5c(c4)OCCO5)c(=O)[nH]3)CC2)c1`, for which the IC50 is 23.1 µM and the IC90 was greater than 100 µM. For the molecule `O=C(CSC1=Nc2ccccc2C2=NC(c3ccccc3)C(=O)N12)NC1CCCCC1` (stereo not drawn), the IC50 was 0.66 µM and the IC90 stood at 1.29 µM.

Turning to `Cc1ccc(Cn2ccsc2=NC(=O)CCl)cc1`, the IC50 was 0.57 µM and the IC90 amounted to 1.52 µM. `COc1cc(OC)c(OC)cc1CCC(C)NCCC(c1ccccc1)c1ccccc1` (stereo not drawn): the 50% inhibitory concentration (IC50) is 22.3 µM and the IC90 is 25 µM. The like results for `COc1cc2c(cc1OC)CN(CCC(=O)c1ccc(Br)cc1)CC2` were, in that order, 12.1 µM and 13.7 µM. For `CN1/C(=C/C(=O)c2nc(S(C)(=O)=O)ncc2Cl)C(C)(C)c2ccccc21`, the IC50 is 3.21 µM and the IC90 stood at 10.7 µM. With `O=C(Nc1ccc(Cl)cc1)N1CCN(c2ccc3nnc(-c4ccc(F)cc4)n3n2)CC1`, the IC50 is 13.8 µM and the IC90 worked out at 26.4 µM.
